Measured values published in PubChem BioAssay (NCI).
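Five concentrations, 48 hours, 96-well plates. Here, GI50 denotes the concentration required for 50% inhibition of growth. At the TGI there is no net growth.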

Assays:
Experiment in all cases: NCI tumour cell line growth inhibition, 48 h
A498 renal = test system: A498 renal
CAKI-1 renal = test system: CAKI-1 renal
CCRF-CEM leukemia = test system: CCRF-CEM leukemia
HOP-62 NSCLC = test system: HOP-62 NSCLC
IGROV1 ovarian = test system: IGROV1 ovarian
LOX IMVI melanoma = test system: LOX IMVI melanoma
NCI-H460 lung = test system: NCI-H460 lung
OVCAR-3 ovarian = test system: OVCAR-3 ovarian
T-47D breast = test system: T-47D breast
UO-31 renal = test system: UO-31 renal

## Cn1cc(Nc2nccc(-c3ccc4c(c3)CN(C3COC3)CC[C@H]4NC(=O)c3cn(C(C)(C)C)nn3)n2)cn1
A498 renal
  GI50: 76.5 µM
  TGI: > 100 µM
CAKI-1 renal
  GI50: 37.7 µM
  TGI: > 100 µM
CCRF-CEM leukemia
  GI50: > 100 µM
  TGI: > 100 µM
HOP-62 NSCLC
  GI50: > 100 µM
  TGI: > 100 µM
IGROV1 ovarian
  GI50: 32 µM
  TGI: > 100 µM
LOX IMVI melanoma
  GI50: 38.5 µM
  TGI: > 100 µM
NCI-H460 lung
  GI50: 85.9 µM
  TGI: > 100 µM
OVCAR-3 ovarian
  GI50: > 100 µM
  TGI: > 100 µM
T-47D breast
  GI50: 47.9 µM
  TGI: > 100 µM
UO-31 renal
  GI50: 53.1 µM
  TGI: > 100 µM

## O=C1NC(=NCCc2ccccc2F)S/C1=C\c1ccc2ncccc2c1
A498 renal
  GI50: 4.83 µM
  TGI: 18.2 µM
CAKI-1 renal
  GI50: 5.29 µM
  TGI: > 19.7 µM
CCRF-CEM leukemia
  GI50: 5.05 µM
  TGI: > 20.1 µM
HOP-62 NSCLC
  GI50: 9.31 µM
  TGI: > 25 µM
IGROV1 ovarian
  GI50: 7.02 µM
  TGI: > 25 µM
LOX IMVI melanoma
  GI50: 1.82 µM
  TGI: > 25 µM
NCI-H460 lung
  GI50: 6.57 µM
  TGI: > 25 µM
OVCAR-3 ovarian
  GI50: 7.35 µM
  TGI: 24.2 µM
T-47D breast
  GI50: 9.55 µM
  TGI: > 25 µM
UO-31 renal
  GI50: 6.91 µM
  TGI: > 25 µM

## Nc1nc(N)c2c(Cl)c(CNc3ccc(Cl)c(Cl)c3)ccc2n1
A498 renal
  TGI: 8.68 µM
CAKI-1 renal
  TGI: 16 µM
CCRF-CEM leukemia
  TGI: 12.1 µM
HOP-62 NSCLC
  TGI: 6.59 µM
IGROV1 ovarian
  TGI: 13.4 µM
LOX IMVI melanoma
  TGI: 7.37 µM
NCI-H460 lung
  TGI: 11.4 µM
OVCAR-3 ovarian
  TGI: 11 µM
T-47D breast
  TGI: 23.3 µM
UO-31 renal
  TGI: 10.3 µM

## CC(=O)NC(CCc1ccc(Cl)c(Cl)c1)c1cccc(O)c(=O)c1 (stereo not given)
A498 renal
  GI50: 1.15 µM
  TGI: 25.8 µM
CAKI-1 renal
  GI50: 0.195 µM
  TGI: 11.9 µM
CCRF-CEM leukemia
  GI50: 0.398 µM
  TGI: 16.3 µM
HOP-62 NSCLC
  GI50: 0.393 µM
  TGI: 12.2 µM
IGROV1 ovarian
  GI50: 0.539 µM
  TGI: 3.33 µM
LOX IMVI melanoma
  GI50: 0.559 µM
  TGI: 7.5 µM
NCI-H460 lung
  GI50: 0.407 µM
  TGI: 11.8 µM
OVCAR-3 ovarian
  GI50: 0.358 µM
  TGI: 14.7 µM
T-47D breast
  GI50: 1.1 µM
  TGI: 38.6 µM
UO-31 renal
  GI50: 0.109 µM
  TGI: 2.2 µM

## CC(C)(Oc1cccc(N2CCC[C@@H](C(=O)N(Cc3ccc(-c4cn[nH]c4)cc3)C3CC3)C2)c1)C(=O)N1CCNCC1
A498 renal
  GI50: 16 µM
  TGI: 30.1 µM
CAKI-1 renal
  GI50: 8.11 µM
  TGI: 21.9 µM
CCRF-CEM leukemia
  GI50: 24.1 µM
  TGI: > 100 µM
HOP-62 NSCLC
  GI50: 13.3 µM
  TGI: 28.5 µM
IGROV1 ovarian
  GI50: 12.3 µM
  TGI: 26.8 µM
LOX IMVI melanoma
  GI50: 11.8 µM
  TGI: 25 µM
NCI-H460 lung
  GI50: 12.3 µM
  TGI: 27.2 µM
OVCAR-3 ovarian
  GI50: 12.4 µM
  TGI: 26 µM
T-47D breast
  GI50: 12.6 µM
  TGI: 34.3 µM
UO-31 renal
  GI50: 12.1 µM
  TGI: 26.8 µM

## C=C1CC[C@@](C)(c2cc(Br)c(C)cc2OC(C)=O)[C@H]1C
A498 renal
  GI50: 16.8 µM
  TGI: 31.6 µM
CAKI-1 renal
  GI50: 14.7 µM
  TGI: 28.8 µM
CCRF-CEM leukemia
  GI50: 8.88 µM
  TGI: 26.6 µM
HOP-62 NSCLC
  GI50: 17.5 µM
  TGI: 31.8 µM
IGROV1 ovarian
  GI50: 13.2 µM
  TGI: 29.4 µM
LOX IMVI melanoma
  GI50: 14.8 µM
  TGI: 31 µM
NCI-H460 lung
  GI50: 11.3 µM
  TGI: 25 µM
OVCAR-3 ovarian
  GI50: 14.6 µM
  TGI: 29.2 µM
T-47D breast
  GI50: 10.7 µM
  TGI: 27.8 µM
UO-31 renal
  GI50: 13.1 µM
  TGI: 30.5 µM

## COc1cc(C(=O)/C=C/c2cccnc2Nc2ccc(Cl)cc2)cc(OC)c1OC
A498 renal
  GI50: 1.41 µM
  TGI: 2.84 µM
CAKI-1 renal
  GI50: 1.75 µM
  TGI: 4.04 µM
CCRF-CEM leukemia
  GI50: 0.369 µM
  TGI: 4.87 µM
HOP-62 NSCLC
  GI50: 1.65 µM
  TGI: 3.13 µM
IGROV1 ovarian
  GI50: 2.24 µM
  TGI: 4.78 µM
LOX IMVI melanoma
  GI50: 1.27 µM
  TGI: 2.59 µM
NCI-H460 lung
  GI50: 1.92 µM
  TGI: 3.88 µM
OVCAR-3 ovarian
  GI50: 1.31 µM
  TGI: 2.62 µM
T-47D breast
  GI50: 1.42 µM
  TGI: 3.24 µM
UO-31 renal
  GI50: 1.32 µM
  TGI: 2.7 µM

## Cc1ccc2c(-c3ccnc(Nc4cccc(C(F)(F)F)c4)n3)c(-c3ccccc3)nn2n1
A498 renal
  GI50: 5.72 µM
  TGI: > 15.4 µM
CAKI-1 renal
  GI50: 2.83 µM
  TGI: > 25 µM
CCRF-CEM leukemia
  GI50: 7.77 µM
  TGI: > 25 µM
HOP-62 NSCLC
  GI50: 14.4 µM
  TGI: > 25 µM
IGROV1 ovarian
  GI50: 2.1 µM
  TGI: 24.4 µM
LOX IMVI melanoma
  GI50: 4.92 µM
  TGI: > 17.2 µM
NCI-H460 lung
  GI50: 6.42 µM
  TGI: > 16.4 µM
OVCAR-3 ovarian
  GI50: 5.73 µM
  TGI: > 18.8 µM
T-47D breast
  GI50: 6.95 µM
  TGI: > 23.7 µM
UO-31 renal
  GI50: 1.16 µM
  TGI: > 25 µM

## CCc1nc(N)nc(N)c1-c1ccc(N2CCNCC2)c([N+](=O)[O-])c1
A498 renal
  TGI: > 100 µM
CAKI-1 renal
  TGI: > 100 µM
CCRF-CEM leukemia
  TGI: > 72.1 µM
HOP-62 NSCLC
  TGI: > 91.8 µM
IGROV1 ovarian
  TGI: > 100 µM
LOX IMVI melanoma
  TGI: > 66.1 µM
NCI-H460 lung
  TGI: > 100 µM
OVCAR-3 ovarian
  TGI: > 100 µM
T-47D breast
  TGI: > 100 µM
UO-31 renal
  TGI: > 100 µM

## NC(=O)NC(=O)Nc1ccc(Br)cc1
A498 renal
  TGI: > 100 µM
CAKI-1 renal
  TGI: > 35.1 µM
CCRF-CEM leukemia
  TGI: > 15.3 µM
HOP-62 NSCLC
  TGI: > 30.8 µM
IGROV1 ovarian
  TGI: > 100 µM
LOX IMVI melanoma
  TGI: > 56.9 µM
NCI-H460 lung
  TGI: > 36.4 µM
OVCAR-3 ovarian
  TGI: > 20.7 µM
T-47D breast
  TGI: > 100 µM
UO-31 renal
  TGI: > 100 µM
